Measured values reported in US7138411B2, “Substituted benzopyran derivatives for the treatment of inflammation” (G.D. Searle & Co., priority 1997, dated 2006).

Experiments:
COX-2 [1] = target: T1, COX-2 (UniProt P35354); experiment: Fast assay for COX-2 activity (PGE2 ELISA); type: biochemical, human or murine; conditions: fast assay: 10 min pre-incubation at 25° C., reaction stopped after two minutes, pH 7.5
T1 sequence (P35354 1-604): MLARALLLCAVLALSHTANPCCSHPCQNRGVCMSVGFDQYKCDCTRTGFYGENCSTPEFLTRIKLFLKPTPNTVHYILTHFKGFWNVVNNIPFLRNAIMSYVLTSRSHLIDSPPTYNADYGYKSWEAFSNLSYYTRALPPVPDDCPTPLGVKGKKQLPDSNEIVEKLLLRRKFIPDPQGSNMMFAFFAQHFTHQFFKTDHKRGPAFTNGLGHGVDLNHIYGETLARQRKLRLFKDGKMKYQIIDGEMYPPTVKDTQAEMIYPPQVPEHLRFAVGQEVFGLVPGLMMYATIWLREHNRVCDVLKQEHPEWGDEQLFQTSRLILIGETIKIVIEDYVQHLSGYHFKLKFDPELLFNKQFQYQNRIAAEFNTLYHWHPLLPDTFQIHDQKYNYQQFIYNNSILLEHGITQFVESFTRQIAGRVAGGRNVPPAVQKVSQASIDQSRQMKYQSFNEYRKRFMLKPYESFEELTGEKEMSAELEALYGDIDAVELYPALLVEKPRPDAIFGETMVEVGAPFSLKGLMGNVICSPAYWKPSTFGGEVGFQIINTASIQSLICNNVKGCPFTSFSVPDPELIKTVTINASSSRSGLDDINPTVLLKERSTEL

COX-2 [2] = target: T1, COX-2; experiment: Assay for COX-2 activity (PGE2 ELISA); conditions: read-out: COX-2 IC50; 10–20 minutes pre-incubation, reaction stopped after ten minutes, pH 8.0
COX-1 = COX-1 (UniProt P23219); experiment: Assay for COX-1 activity (PGE2 ELISA); conditions: read-out: COX-1 IC50; 10–20 minutes pre-incubation, reaction stopped after ten minutes, pH 8.0

Row | Compound | IC50 (COX-2 [1]) [µM] | IC50 (COX-2 [2]) [µM] | IC50 (COX-1) [µM] | melting point [°C]
1 | COc1ccc(Oc2ccc3c(c2)C=C(C(=O)O)C(C(F)(F)F)O3)cc1 (stereo not shown) [Example 7, 6-(4-Methoxyphenoxy)-2-(trifluoromethyl)-2H-1-benzopyran-3-carboxylic acid] | – | < 0.1 | 1 | 181.7 to 182.9
2 | O=C(O)C1=Cc2cccc(-c3ccccc3)c2OC1C(F)(F)F (stereo not shown) [Example 21, 8-Phenyl-2-trifluoromethyl-2H-1-benzopyran-3-carboxylic acid] | 11 | – | – | 171.6 to 175
3 | Cc1ccc2c(c1C)OC(C(F)(F)F)C(C(=O)O)=C2 (stereo not shown) [Example 22, 7,8-Dimethyl-2-trifluoromethyl-2H-1-benzopyran-3-carboxylic acid] | > 100 | – | – | 245.2 to 247.3
4 | O=C(O)C1=Cc2ccc(-c3ccccc3)cc2OC1C(F)(F)F (stereo not shown) [Example 26, 7-Phenyl-2-trifluoromethyl-2H-1-benzopyran-3-carboxylic acid] | > 100 | – | – | 209.4 to 211.7
5 | CN(C)S(=O)(=O)c1ccc2c(c1)C=C(C(=O)O)C(C(F)(F)F)O2 (stereo not shown) [Example 50, 6-[(Dimethylamino)sulfonyl]-2-trifluoromethyl-2H-1-benzopyran-3-carboxylic acid] | 79 | – | – | 201.2 to 202.5
6 | CC(C)(C)NS(=O)(=O)c1ccc2c(c1)C=C(C(=O)O)C(C(F)(F)F)O2 (stereo not shown) [Example 54, 6-[(1,1-Dimethylethyl)aminosulfonyl]-2-trifluoromethyl-2H-1-benzopyran-3-carboxylic acid] | 19 | – | – | 229.3 to 233.5
7 | O=C(O)C1=Cc2cc(S(=O)(=O)NCc3ccccc3)cc(Cl)c2OC1C(F)(F)F (stereo not shown) [Example 57, 8-Chloro-6-[[(phonylmethyl)amino]sulfonyl]-2-trifluoromethyl-2H-1-benzopyran-3-carboxylic acid] | 21 | 21 | > 100 | –
8 | O=C(O)C1=Cc2cc(C(=O)Cc3ccccc3)ccc2OC1C(F)(F)F (stereo not shown) [Example 59, 6-Phenylacetyl-2-trifluoromethyl-2H-1-benzopyran-3-carboxylic acid] | 43 | – | – | 159 to 164
9 | O=C(O)C1=Cc2c(ccc3ccccc23)OC1C(F)(F)F (stereo not shown) [Example 63] | 1.4 | – | – | 244.7 to 249.8
10 | O=C(O)C1=Cc2cc(Cl)ccc2O[C@@H]1C(F)(F)F [Example 66, (S)-6-Chloro-2-trifluoromethyl-2H-1-benzopyran-3-carboxylic acid] | 82 | < 0.1 | 16.9 | –
11 | O=C(O)C1=Cc2cc(OC(F)(F)F)ccc2O[C@@H]1C(F)(F)F [Example 67, (S)-6-Trifluoromethoxy-2-trifluoromethyl-2H-1-benzopyran-3-carboxylic acid] | – | – | 6.7 | –
12 | O=C(O)C1=Cc2cc(C(F)(F)F)ccc2OC1C(F)(F)F (stereo not shown) [Example 82, 2,6-Bis(trifluoromethyl)-2H-1-benzopyran-3-carboxylic acid] | – | – | 5.6 | –
13 | O=C(O)C1=Cc2cc(SC(F)(F)F)ccc2OC1C(F)(F)F (stereo not shown) [Example 91, 2-(Trifluoromethyl)-6-[(trifluoromethyl)thio]-2H-1-benzopyran-3-carboxylic acid] | < 0.1 | 0.2 | 36 | –
14 | O=C(O)C1=Cc2cc(C(=O)c3ccccc3)ccc2OC1C(F)(F)F (stereo not shown) [Example 96, 6-Benzoyl-2-(trifluoromethyl)-2H-1-benzopyran-3-carboxylic acid] | 0.2 | 0.3 | – | 269.8 to 270.8
15 | O=C(O)C1=Cc2cc(Cl)cnc2NC1C(F)(F)F (stereo not shown) [Example 174, 6-Chloro-2-(triflouromethyl)-1,2-dihydro[1,8]napthyridine-3-carboxylic acid] | – | – | – | 287.4 to 288.4
16 | O=C(O)C1=Cc2cc(Cl)c(Oc3ccc([N+](=O)[O-])cc3)cc2OC1C(F)(F)F (stereo not shown) [Example 203, 6-Chloro-7-(4-nitrophenoxy)-2-(trifluoromethyl)-2H-1-benzopyran-3-carboxylic acid] | < 0.1 | – | – | 246.4 to 248.3
17 | CCC1=C(C(=O)O)C(C(F)(F)F)Oc2ccc(Cl)cc21 (stereo not shown) [Example 212, 6-Chloro-4-ethyl-2-trifluoromethyl-2H-1-benzopyran-3-carboxylic acid] | – | – | – | 170.9 to 172.1

Continued, values first:

Row | IC50 (COX-2 [1]) [µM] | IC50 (COX-2 [2]) [µM] | IC50 (COX-1) [µM] | melting point [°C] | Compound
18 | < 0.1 | < 0.1 | 5 | – | CSc1ccc2c(c1)C=C(C(=O)O)C(C(F)(F)F)O2 (stereo not shown) [Example 2, 6-(Methylthio)-2-(trifluoromethyl)-2H-1-benzopyran-3-carboxylic acid]
19 | < 0.1 | – | – | 207.5 to 209.3 | Cc1cc2c(cc1Cl)C=C(C(=O)O)C(C(F)(F)F)O2 (stereo not shown) [Example 6, 6-Chloro-7-methyl-2-trifluoromethyl-2H-1-benzopyran-3-carboxylic acid]
20 | 0.3 | – | – | 189.6 to 190.9 | O=C(O)C1=Cc2cc(Br)ccc2OC1C(F)(F)F (stereo not shown) [Example 13, 6-Bromo-2-trifluoromethyl-2H-1-benzopyran-3-carboxylic acid]
21 | > 100 | – | – | 224.5 to 225.6 | O=C(O)C1=Cc2cccc(Cl)c2OC1C(F)(F)F (stereo not shown) [Example 14, 8-Chloro-2-trifluoromethyl-2H-1-benzopyran-3-carboxylic acid]
22 | 12 | – | – | 190.1 to 191.2 | O=C(O)C1=Cc2c(Cl)cc(Cl)cc2OC1C(F)(F)F (stereo not shown) [Example 18, 5,7-Dichloro-2-trifluoromethyl-2H-1-benzopyran-3-carboxylic acid]
23 | > 100 | – | – | 158.3 to 159.7 | CC(C)c1ccc2c(c1)OC(C(F)(F)F)C(C(=O)O)=C2 (stereo not shown) [Example 25, 7-(1-Methylethyl)-2-trifluoromethyl-2H-1-benzopyran-3-carboxylic acid]
24 | 67 | – | – | 170.7 to 172.1 | CCc1cc2c(cc1Cl)C=C(C(=O)O)C(C(F)(F)F)O2 (stereo not shown) [Example 27, 6-Chloro-7-ethyl-2-trifluoromethyl-2H-1-benzopyran-3-carboxylic acid]
25 | < 0.1 | – | – | 197.2 to 199.1 | CCc1cc(Cl)cc2c1OC(C(F)(F)F)C(C(=O)O)=C2 (stereo not shown) [Example 29, 6-Chloro-8-ethyl-2-trifluoromethyl-2H-1-benzopyran-3-carboxylic acid]
26 | – | – | 43 | 204.5 to 206.9 | COc1cc(Cl)c2c(c1)C=C(C(=O)O)C(C(F)(F)F)O2 (stereo not shown) [Example 40, 8-Chloro-6-methoxy-2-trifluoromethyl-2H-1-benzopyran-3-carboxylic acid]
27 | 99 | – | – | > 300 | O=C(O)C1=Cc2cc(F)cc(Br)c2OC1C(F)(F)F (stereo not shown) [Example 43, 8-Bromo-6-fluoro-2-trifluoromethyl-2H-1-benzopyran-3-carboxylic acid]
28 | 1.9 | 1.7 | > 100 | – | COc1cc(Br)cc2c1OC(C(F)(F)F)C(C(=O)O)=C2 (stereo not shown) [Example 47, 6-Bromo-8-methoxy-2-trifluoromethyl-2H-1-benzopyran-3-carboxylic acid]
29 | 20 | – | – | 207.6 to 208.6 | CNS(=O)(=O)c1ccc2c(c1)C=C(C(=O)O)C(C(F)(F)F)O2 (stereo not shown) [Example 52, 6-(Methylamino)sulfonyl-2-trifluoromethyl-2H-1-benzopyran-3-carboxylic acid]
30 | 36 | – | – | – | CC(C)c1cc(Cl)cc2c1OC(C(F)(F)F)C(C(=O)O)=C2 (stereo not shown) [Example 103, 6-Chloro-8-(1-methylethyl)-2-trifluoramethyl-2H-1-benzopyran-3-carboxylic acid]
31 | – | – | – | 240.4 to 241.5 | O=C(O)C1=Cc2cc(Cl)c(S(=O)(=O)c3ccc(Cl)cc3)cc2OC1C(F)(F)F (stereo not shown) [Example 194, 6-Chloro-7-[(4-chlorophenyl)sulfonyl]-2-(trifluoromethyl)-2H-1-benzopyran-3-carboxylic acid]
32 | < 0.1 | – | – | 226.4 to 227.4 | O=C(O)C1=Cc2cc(Cl)c(Oc3cccc(Cl)n3)cc2OC1C(F)(F)F (stereo not shown) [Example 199, 6-Chloro-7-[(6-chloro-2-pyridinyl)oxy]-2-(trifluoromethyl)-2H-1-benzopyran-3-carboxylic acid]
33 | – | < 0.1 | 42.8 | 234.2 to 235.4 | O=C(O)C1=Cc2cc(Cl)c(Oc3ccccn3)cc2OC1C(F)(F)F (stereo not shown) [Example 202, 6-Chloro-7-[2-pyridinyloxy]-2-(trifluoromethyl)-2H-1-benzopyran-3-carboxylic acid]
34 | – | – | – | 199 to 199.1 | O=C(O)C1=Cc2cc(Cl)c(Oc3ccccc3Cl)cc2OC1C(F)(F)F (stereo not shown) [Example 204, 6-Chloro-7-(2-chlorophenoxy)-2-(trifluoromethyl)-2H-1-benzopyran-3-carboxylic acid]
35 | – | – | – | 206.8 to 207.4 | O=C(O)C1=Cc2cc(Cl)c(Oc3ccc(Cl)c(F)c3)cc2OC1C(F)(F)F (stereo not shown) [Example 205, 6-Chloro-7-(4-chloro-3-fluorophenoxy)-2-(trifluoromethyl)-2H-1-benzapyran-3-carboxylic acid]
